# Measured values: patent publication US20180228861A1, “COMPOSITION FOR TREATING DIABETES AND DYSLIPIDEMIA OBTAINED FROM THE EXTRACT OF COSTUS PICTUS D.DON PLANT AND A METHOD OF PREPARING THE SAME” (ARJUNA NATURAL EXTRACTS, LTD., priority 2012, published 2018)
# Tests used:
# isolated mouse islets = assay: In vitro insulin secretogogue effect using isolated mouse islets; type: cell-based, mice (Swiss albino strain); conditions: 10 nM
# Text: In vitro insulin secretogogue effect of the different fractions of Costus pictus D. Don using isolated mouse islets.
# Four to six weeks old male mice (Swiss albino strain; weighing 25±2 g) used for the study were maintained in the optimum environmental conditions.
# Pancreata isolated from animals which were euthanized with CO2 anesthesia according the method of Shewadae et al., (1999) was removed aspectically. Washed thrice with Hank's Balanced Salt Solution (HBSS) and were subjected to collagenase digestion at 37° C. The pancreata was incubated in the dissociation medium (Dulbecco's modified minimum essential medium (DMEM) supplemented with collagenase, Soybean Trypsin Inhibitor and Bovine Serum Albumin fraction V) for 10 minutes. The procedure was repeated thrice and the dissociation was stopped by addition of chilled DMEM with 10% fetal bovine serum to the pancreatic digest. The mixture was centrifuged at 200×g for 10 minutes and the supernatant was discarded. After two washings with DMEM, the pellet was seeded in culture flasks containing DMEM pH-7.2 supplemented with 10% fetal bovine serum. The flasks were incubated at 37° C. in a CO2 incubator.
# The viability of the islets was checked by Trypan blue dye exclusion test (Warburton and James, 1995) and this estimate had shown >98% of the cells were viable. […]
# [1] = test system: streptozotocin-induced Type 1 diabetic model in Wistar rats; assay: Lipid profile in streptozotocin-induced diabetic rats; type: in vivo; conditions: extracts 40 mg/kg orally, glibenclamide 3 mg/kg orally
# Experimental: (§1) The study was conducted in adult male Wistar rats weighing 200-250 gm for a period of 40 days (30 days of treatment and 10 days of induction). The animals were randomly divided into seven groups comprising six each. Diabetes was induced in all the groups except the normal control group by the intra peritoneal administration of streptozotocin at 50 mg/kg. […] The effect of the different fractions was assessed by measuring the fasting blood glucose level, post prandial blood glucose level, serum insulin levels and glycosylated Hb. The anti hyperlipidemic effect was assessed by the estimation of total cholesterol, triglyceride, LDL cholesterol, HDL cholesterol, VLDL, muscle glycogen and liver glycogen. The antioxidant effects of the different extracts were assessed by the measuring TBARS, superoxide dismutase (SOD), catalase, reduced glutathione (GSH) and glutathione peroxidase levels (GPx). TBARS was determined by TBA assay (Ohkawa et al., 1979), SOD was measured using the nitroblue tetrazolium reduction method (Kakkar et al., 1984), Catalase was assayed using the method described by Aebi (1974). GPx was measured as described by Flohe and Gunzler (1984), GSH was measured as per the method of Jollow et al., (1974). Histopathological examination of pancreas was conducted to assess the antidiabetic effect of the different fractions of Costus pictus D. Don.
# [2] = test system: streptozotocin-induced Type 1 diabetic model in Wistar rats; assay: Muscle and liver glycogen in streptozotocin-induced diabetic rats; type: in vivo; conditions: extracts 40 mg/kg orally, glibenclamide 3 mg/kg orally
# Experimental: as §1
structure (smiles),measurement,setting,value
COc1ccc(Cl)cc1C(=O)NCCc1ccc(S(=O)(=O)NC(=O)NC2CCCCC2)cc1 [glibenclamide],Thirty minutes Concentration of insulin,isolated mouse islets; thirty minutes,3.77 ng/mL
same,Zero minutes Concentration of insulin,isolated mouse islets; zero minutes,0.97 ng/mL
same,HDL,[1]; HDL cholesterol,52 mg/dL
same,LDL,[1]; LDL cholesterol,56 mg/dL
same,VLDL,[1],20 mg/dL
same,TC,[1]; total cholesterol,128 mg/dL
same,TG,[1]; triglyceride,100 mg/dL
same,Liver glycogen,[2],46 mg/g tissue
same,Muscle glycogen,[2],8 mg/g tissue
